Consider 13 molecules from DBAASP.

In brackets after ≈: the same amount, converted by molar mass.

Some test systems named below: Pseudomonas aeruginosa; Escherichia coli; Staphylococcus aureus.
Holding throughout (experiment): ≥ marks a high value that may be exact or a test limit, other limits are often not marked, values filed in µg/mL are converted to µM
In test [1] the test system is Escherichia coli ATCC 25922.
Test [2] deals with Pseudomonas aeruginosa ATCC 27853.
Test [3] deals with Staphylococcus aureus ATCC 29213.
Test [4] deals with Pseudomonas aeruginosa PAO1.

In the case of `CC(C)C[C@H](NC(=O)CNC(=O)[C@H](C)NC(=O)[C@H](CC(C)C)NC(=O)[C@H](CCCCN)NC(=O)[C@H](CCCCN)NC(=O)[C@H](C)NC(=O)[C@H](CC(C)C)NC(=O)CNC(=O)[C@H](C)NC(=O)[C@H](CC(C)C)NC(=O)[C@H](CCCCN)NC(=O)[C@H](CCCCN)NC(=O)[C@H](C)NC(=O)[C@H](CC(C)C)NC(=O)CNC(=O)[C@H](C)NC(=O)[C@H](CC(C)C)NC(=O)[C@@H](N)CCCCN)C(=O)N[C@@H](C)C(=O)N[C@@H](CCCCN)C(N)=O` [KLAGLAKKLAGLAKKLAGLAK], the minimum inhibitory concentration (MIC) (usually the smallest concentration in the dilution series that meets the test's criterion for growth inhibition) in test [1] turned out to be 3.88 µM (≈ 8 µg/mL); in test [2], 62 µM (≈ 128 µg/mL); in test [3], 7.75 µM (≈ 16 µg/mL).
The like results for `CC[C@H](C)[C@H](NC(=O)[C@H](CCCCN)NC(=O)[C@H](CCCN=C(N)N)NC(=O)[C@@H](N)CCC(N)=O)C(=O)N[C@@H](CCCN=C(N)N)C(=O)N[C@H](C(=O)N[C@@H](CCCN=C(N)N)C(=O)N[C@@H](CC(C)C)C(=O)N[C@@H](CO)C(=O)N[C@@H](C)C(=O)O)C(C)C` [QRKIRVRLSA] were, in that order, 1.63 µM (≈ 2 µg/mL), 3.26 µM (≈ 4 µg/mL) and more than 52.2 µM.
On the same counts, the results for `NCC(=O)N[C@@H](CCCN=C(N)N)C(=O)N[C@@H](CCCN=C(N)N)C(=O)N1CCC[C@H]1C(=O)N[C@@H](CCCN=C(N)N)C(=O)N1CCC[C@H]1C(=O)N[C@@H](CCCN=C(N)N)C(=O)N1CCC[C@H]1C(=O)N[C@@H](CCCN=C(N)N)C(=O)N1CCC[C@H]1C(N)=O` [GRRPRPRPRP] are more than 160 µM, more than 160 µM and more than 160 µM.
As for `CC(C)C[C@H](NC(=O)[C@H](Cc1ccccc1)NC(=O)[C@H](CCCCN)NC(=O)[C@H](CO)NC(=O)[C@@H](NC(=O)[C@H](CC(C)C)NC(=O)[C@H](CCCCN)NC(=O)[C@H](CCCCN)NC(=O)[C@H](CCCCN)NC(=O)[C@H](Cc1ccccc1)NC(=O)[C@H](CO)NC(=O)[C@H](CCCCN)NC(=O)[C@H](Cc1c[nH]c2ccccc12)NC(=O)[C@@H](N)CCCCN)[C@@H](C)O)C(=O)N[C@@H](Cc1cnc[nH]1)C(=O)N[C@@H](CO)C(=O)N[C@@H](C)C(=O)N[C@@H](CCCCN)C(=O)N[C@@H](CCCCN)C(=O)N[C@@H](Cc1ccccc1)C(N)=O` [KWKSFKKKLTSKFLHSAKKF], the MIC against Pseudomonas aeruginosa is 5.06 µM (≈ 12.5 µg/mL).
As for `CC[C@H](C)[C@H](NC(=O)[C@H](CC(=O)O)NC(=O)[C@H](CC(C)C)NC(=O)[C@@H](NC(=O)CN)C(C)C)C(=O)N[C@@H](CC(C)C)C(=O)N[C@@H](CCCCN)C(=O)NCC(=O)N[C@@H](C)C(=O)N[C@@H](C)C(=O)N[C@@H](CCCCN)C(=O)N[C@@H](CC(=O)O)C(=O)N[C@@H](CC(C)C)C(=O)N[C@@H](C)C(=O)NCC(=O)N[C@@H](Cc1cnc[nH]1)C(=O)O` [GVLDILKGAAKDLAGH], the values for the MIC in test [1] and in test [3] were 10.1 µM (≈ 15.9 µg/mL) and 40.5 µM (≈ 63.9 µg/mL), respectively.
Take `CC[C@H](C)[C@H](NC(=O)[C@H](CCCN=C(N)N)NC(=O)[C@H](CCCN=C(N)N)NC(=O)[C@@H](N)CCC(N)=O)C(=O)N[C@@H](CCCN=C(N)N)C(=O)N[C@H](C(=O)N[C@@H](CCCN=C(N)N)C(=O)N[C@@H](CC(C)C)C(=O)N[C@@H](CO)C(=O)N[C@@H](C)C(=O)O)C(C)C` [QRRIRVRLSA]: the MIC was 12.8 µM (≈ 16 µg/mL) in test [1], 51 µM (≈ 64 µg/mL) in test [2] and more than 51 µM in test [3].
For the molecule `CC[C@H](C)[C@H](NC(=O)CNC(=O)[C@H](CO)NC(=O)[C@H](CC(C)C)NC(=O)[C@@H](NC(=O)CN)[C@@H](C)CC)C(=O)N[C@@H](CC(C)C)C(=O)NCC(=O)N[C@@H](CCSC)C(=O)NCC(=O)N[C@@H](CCCCN)C(=O)N[C@@H](CCCCN)C(=O)N[C@@H](CC(C)C)C(=O)N[C@H](C(=O)N[C@H]1CSSC[C@@H](C(=O)O)NC(=O)[C@H](CC(C)C)NC(=O)CNC(=O)[C@H](CO)NC(=O)[C@H](CC(C)C)NC(=O)CNC1=O)C(C)C` [GILSGILGMGKKLVCGLSGLC], the figures for the MIC in the test with Escherichia coli and in the test with Staphylococcus aureus were 15 µM (≈ 30.3 µg/mL) and 50 µM (≈ 101 µg/mL), respectively.
For `CC(C)C[C@H](NC(=O)[C@H](CCCCN)NC(=O)[C@H](CC(C)C)NC(=O)[C@H](CC(C)C)NC(=O)[C@H](CCCCN)NC(=O)[C@H](CCCCN)NC(=O)[C@H](CCC(=O)O)NC(=O)[C@H](CC(C)C)NC(=O)[C@H](CCCCN)NC(=O)[C@H](CC(C)C)NC(=O)[C@H](CC(C)C)NC(=O)[C@H](CCCCN)NC(=O)[C@H](CCCCN)NC(=O)[C@@H](N)CC(C)C)C(=O)N[C@@H](C)C(=O)NCC(=O)O` [LKKLLKLEKKLLKLAG], the MIC in test [1] was 5 µM (≈ 9.18 µg/mL); in test [3], more than 40 µM.
For `CC(C)C[C@H](NC(=O)CNC(=O)[C@H](CCCCN)NC(=O)[C@H](C)NC(=O)[C@H](CC(C)C)NC(=O)[C@H](CCCCN)NC(=O)[C@H](C)NC(=O)[C@H](CC(C)C)NC(=O)CNC(=O)[C@H](CCCCN)NC(=O)[C@H](C)NC(=O)[C@H](Cc1c[nH]c2ccccc12)NC(=O)[C@H](CCCCN)NC(=O)[C@H](C)NC(=O)[C@H](CC(C)C)NC(=O)CNC(=O)[C@H](CCCCN)NC(=O)[C@H](C)NC(=O)[C@H](CC(C)C)NC(=O)[C@@H](N)CCCCN)C(=O)N[C@@H](C)C(N)=O` [KLAKGLAKWAKGLAKLAKGLA], the MIC is 3.74 µM (≈ 8 µg/mL) against Escherichia coli, 15 µM (≈ 32 µg/mL) against Pseudomonas aeruginosa and 3.74 µM (≈ 8 µg/mL) against Staphylococcus aureus.
The molecule `CC[C@H](C)[C@H](NC(=O)[C@H](Cc1ccccc1)NC(=O)[C@H](CO)NC(=O)[C@H](CCCCN)NC(=O)[C@H](Cc1c[nH]c2ccccc12)NC(=O)[C@@H](N)CCCCN)C(=O)N[C@@H](CC(N)=O)C(=O)N[C@@H](CCCCN)C(=O)N[C@@H](CC(C)C)C(=O)N[C@H](C(=O)N[C@@H](CO)C(=O)N[C@@H](CCCCN)C(=O)N[C@@H](Cc1ccccc1)C(=O)N[C@@H](CC(C)C)C(=O)N[C@@H](Cc1cnc[nH]1)C(=O)N[C@@H](CO)C(=O)N[C@@H](C)C(=O)N[C@@H](CCCCN)C(=O)N[C@@H](CCCCN)C(=O)N[C@@H](Cc1ccccc1)C(N)=O)[C@@H](C)O` [KWKSFINKLTSKFLHSAKKF] came in with an MIC in the test on Pseudomonas aeruginosa of 5.13 µM (≈ 12.5 µg/mL). In other words, the single-digit micromolar range.
`CC(C)C[C@H](NC(=O)[C@H](CCCCN)NC(=O)[C@H](CC(C)C)NC(=O)[C@H](CC(C)C)NC(=O)[C@H](CCCCN)NC(=O)[C@H](CCCCN)NC(=O)[C@H](CO)NC(=O)[C@H](CC(C)C)NC(=O)[C@H](CCCCN)NC(=O)[C@H](CC(C)C)NC(=O)[C@H](CC(C)C)NC(=O)[C@H](CCCCN)NC(=O)[C@H](CCCCN)NC(=O)[C@@H](N)CC(C)C)C(=O)N[C@@H](C)C(=O)NCC(=O)O` [LKKLLKLSKKLLKLAG]: the MIC in test [1] worked out at 2.5 µM (≈ 4.49 µg/mL); in test [3] it was 10 µM (≈ 17.9 µg/mL).
Take `CC[C@H](C)[C@H](NC(=O)[C@H](C)NC(=O)[C@H](CO)NC(=O)[C@H](CC(C)C)NC(=O)[C@@H](N)Cc1ccccc1)C(=O)N[C@@H](C)C(=O)N[C@@H](CO)C(=O)N[C@@H](CCSC)C(=O)N[C@@H](CC(C)C)C(=O)NCC(=O)N[C@@H](CCCCN)C(=O)N[C@@H](Cc1ccccc1)C(=O)N[C@@H](CC(C)C)C(=O)O` [FLSAIASMLGKFL]: the MIC with Staphylococcus aureus was 200 µM (≈ 280 µg/mL).
For `CC[C@H](C)[C@H](NC(=O)[C@@H](NC(=O)[C@H](CC(N)=O)NC(=O)[C@H](CC(C)C)NC(=O)[C@H](CCSC)NC(=O)[C@@H](NC(=O)[C@H](Cc1ccccc1)NC(=O)[C@H](Cc1ccccc1)NC(=O)[C@H](CC(N)=O)NC(=O)[C@H](CCCCN)NC(=O)[C@H](CC(C)C)NC(=O)[C@H](CC(N)=O)NC(=O)[C@H](CCCCN)NC(=O)[C@@H](NC(=O)[C@@H](NC(=O)[C@@H](NC(=O)[C@H](C)NC(=O)[C@@H](NC(=O)[C@H](CCCCN)NC(=O)[C@@H](N)CCCCN)[C@@H](C)CC)[C@@H](C)CC)[C@@H](C)CC)[C@@H](C)O)[C@@H](C)CC)[C@@H](C)CC)C(=O)O` [KKIAIITKNLKNFFIMLNII], in test [4], the MIC is more than 128 µM.
